US10106817B2, “Compositions and methods of use thereof for identifying anti-viral agents” (priority 2013, dated 2018)
Entries after “also recorded” stand apart in the source; their conditions may differ.

Tests used:
Assay type in all cases: cell-based
CMV IE2-YFP virus = assay: Viral replication kinetics (titer), CMV IE2-YFP virus; conditions: for replication fitness of the parent virus (toxicity of exposure alone): VPA or TSA exposure
Procedure: (§1) MRC5 fibroblasts and life-extended human foreskin fibroblasts (HFFs) (Bresnahan and Shenk, 2000) were maintained in Dulbecco's Modified Eagle's Medium (DMEM) supplemented with 10% fetal bovine serum (FBS) and 50 U/ml penicillin-streptomycin at 37° C. and 5% CO2 in a humidified incubator. ARPE-19 cells were maintained in a 1:1 mixture of DMEM/F-12 (Mediatech Inc.) with 10% FBS (HyClone) and 50 U/ml Penicillin-Streptomycin (Mediatech Inc.). Cells were pretreated in a final concentration of 1 mM VPA (Calbiochem).
(§2) Confluent MRC5 monolayers at ˜5×10^4 cells per well were infected at indicated MOIs using 0.45 μm pre-filtered virus inoculum stocks diluted in culture media. Inoculums were calculated based on plaque-assay titrations (Bolovan-Fritts and Wiedeman, 2001), shown as time point 0 in each figure. Inoculum was then removed and replaced with 1 mL fresh media. Infected wells were collected in triplicate at indicated time points and stored at −80° C. To measure replication, samples were thawed and prepared as a 10-fold serial-dilution series in culture media, analyzed by TCID50, then converted to PFU/ml. Error ranges were calculated by standard deviation.

IE2 = assay: Quantitative Western blot of IE2 expression during CMV infection; conditions: pre-treatment with activator vs untreated control
Procedure: as §1
MRC5s at ˜60% confluency were infected at MOI=1. To synchronize viral entry, adsorption was done at 4° C. for 30 min., cells washed once in PBS (Mediatech, Inc.), fresh media added, and cells placed at a 37° C. in a humidified CO2 incubator. Time points were collected every 1-2 hrs for 20-24 hrs as indicated. Sample collection, protein transfer, and blot preparation were as previously described (Bolovan-Fritts et al., 2004) and samples were loaded and separated on precast SDS PAGE 10% or 7.5% bisacrylamide gels (BioRad).
For quantitative IE2 detection, the 1° antibody MAB810 (Millipore) was used at 1:100 and 2° antibody 926-32212 (LI-COR™) was used at a dilution of 1:20,000. For normalization, anti-beta tubulin antibody 26-42211 (LI-COR™) used at a dilution of 1:2000 followed by 2′ antibody 926-68073 (LI-COR™) at a dilution of 1:20,000. Blots were scanned and quantified on a LI-COR™ Odyssey™ according to manufacturer's protocols.

[1] = test system: cells expressing the mutant amplifier circuit MIEPΔcrs-IE2-IRES-GFP; conditions: after 14 days of TSA treatment
Procedure: (§3) MIEPΔcrs-IE2-GFP was constructed by PCR cloning MIEPΔcrs from the CMV Δcrs IE2-YFP bacmid and inserted into MIEP-IE2-GFP. ARPE-19 cells were transduced with the MIEP-IE2-GFP and MIEPΔcrs-IE2-GFP vectors and FACS sorted for GFP. The transduced cell lines were allowed to recover for 24 hours before the percentage of GFP-expressing cells for each cell line was quantified. Live cells were gated by forward versus side scattering on a FacsCalibur cytometer. On the first day after recovery, 2,500 GFP events were recorded. Subsequently, at least 10,000 GFP events were recorded for each experiment and analyzed using FlowJo™. For genomic PCR, genomic DNA was purified using a NucleoSpin Tissue kit (Clontech).

[2] = test system: MIEP-IE2-GFP cells (MIEP-IE2-IRES-GFP circuit, ARPE-19); assay: Flow cytometry of GFP in negative-feedback MIEP-IE2-GFP cells; conditions: different levels of activation by TSA treatment, 17 hours
From the text: (§4) Mathematica™ (Wolfram Research) was used for closed-loop analysis. Standard lentiviral cloning was used to create minimal MIE circuits (Dull et al., 1998). The minimal MIEP-IE2-GFP and MIEP-GFP circuits are driven by a full-length ˜2.5 kb MIE promoter-enhancer (MIEP) that spans the sequence from the MIEP modulator at the 5′ edge to the junction of IE exons 1 and 2. The MIEP was PCR-cloned from AD169 into pLEIGW (a gift from Thor Lemishka) in place of the EF1a promoter. This full-length MIEP drives an IE2-IRES-GFP or mCherry-IRES-GFP cassette. IE2 was cloned from pRSV-IE86 (a gift from Jay Nelson). ARPE-19 cells were infected and FACS sorted for GFP to create stably expressing cell lines. Cells were treated with TSA for 17 hours, and GFP expression was quantified by flow cytometry. Live cells were gated by forward-versus-side scattering on a FacsCalibur™ cytometer (BD Biosciences) and mean fluorescence intensity recorded. At least 20,000 live cells were recorded for each experiment and data was analyzed in FlowJo™ (Treestar Inc.).
Cell lines (ARPE-19 cells) expressing IE2-GFP from MIE promoter (MIEP) (referred to as “MIEP-IE2-GFP cells”) were tested, in comparison to a cell line expressing MIEP-GFP control (referred to as “MIEP-GFP control cells). MIEP-IE2-GFP cells and MIEP-GFP control cells were treated with 10 ng/ml TNF-α, 400 nM TSA, or 1 mM VPA in MIEP-IE2-GFP cells. […]

IE2-YFP = assay: Single-cell time-lapse fluorescence microscopy of IE2-YFP levels, CMV IE2-YFP virus; conditions: pretreatment with activator vs untreated control
Procedure: as §1
Life-extended HFFs and PML knockdown HFFs (a gift from Roger Everett) were passed onto a 96-well glass-bottom plate (Thermo Fisher Scientific) and grown to confluency to hold cells in the G0. Cells were synchronously infected on ice for 30 mins at MOI=1 (infection with mutant was done at room temperature). Live cells were imaged using a 20× oil objective on a spinning-disk confocal microscope (Olympus DSU™) equipped with a 37° C., humidified, 5% CO2 live-cell chamber. Image collection began when YFP signal was first detected and frames were captured every 10 minutes for 16-24 hours using an exposure time between 200 and 800 msec. Single-cell tracking and segmentation were performed with custom-written code in MatLab™ (Mathworks) as previously described (Weinberger et al., 2008). Homo-FRET imaging was performed as previously described (Weinberger and Shenk, 2007).

[3] = test system: cells expressing the wild-type accelerator circuit MIEP-IE2-IRES-GFP; assay: Percentage of live cells by flow cytometry, wild-type accelerator circuit cells; conditions: after 14 days of TSA treatment
Procedure: as §3

[4] = test system: MIEP-GFP control cells (MIEP-mCherry-IRES-GFP circuit, ARPE-19); assay: Flow cytometry of GFP in non-feedback MIEP-GFP control cells; conditions: for GFP median fluorescence intensity: 10 ng/ml TNF-α, 400 nM TSA, or 1 mM VPA
From the text: as §4
Cell lines (ARPE-19 cells) expressing IE2-GFP from MIE promoter (MIEP) (referred to as “MIEP-IE2-GFP cells”) were tested, in comparison to a cell line expressing MIEP-GFP control (referred to as “MIEP-GFP control cells). MIEP-IE2-GFP cells and MIEP-GFP control cells were treated with 10 ng/ml TNF-α, 400 nM TSA, or 1 mM VPA in MIEP-IE2-GFP cells. The data are depicted in FIG. 33.

CMV Δcrs mutant virus = assay: Replicative fitness of the CMV Δcrs mutant virus (PFU/ml); conditions: 72-hour VPA treatment, PFU/ml on day 10 after infection at MOI=1
Procedure: The CMV GFP control virus (Yu et al., 2003) encodes an SV40 promoter-EGFP cassette. The CMV […] IE2-YFP virus was constructed from the CMV IE2-YFP background as described (Cuevas-Bennett and Shenk, 2008). Viral stocks were titered by TCID50 (Nevels et al., 2004). To verify the integrity of the CMV Δcrs IE2-YFP virus, a rescue virus, CMV ΔcrsREVERT IE2-YFP, was constructed by homologous recombination, whereby CMV Δcrs IE2-YFP BAC DNA (20 μg) and a ˜2.5 kb wild-type MIEP DNA fragment (2.5 μg) were co-transfected by electroporation into 10^6 MRC5 cells, and subjected to two rounds of plaque purification.
as §2

[5] = test system: low-passage clinical CMV isolate TB40-E; assay: Viral replication (titer), clinical isolate TB40-E
Procedure: as §2

Compound	replication fitness of the parent virus (toxicity of exposure alone) (CMV IE2-YFP virus)	IE2 protein levels (amplification) (IE2)	rate of IE2 expression (acceleration) (IE2)	viability (percentage of live cells) [1]	GFP steady-state level as a function of activation (closed-loop dose-response) [2]	rate of IE2 expression in single cells (time to steady-state) (IE2-YFP)	steady-state IE2 levels in single cells (IE2-YFP)	viability (percentage of live cells) [3]	GFP median fluorescence intensity [4]	GFP steady-state level as a function of activation (closed-loop dose-response) ([4]; different levels of activation by TSA treatment, 17 hours)	increase in viral replication compared to the untreated control (CMV IE2-YFP virus; 72-hour VPA pre-treatment, after the first round of viral maturation (~96 hours), MOI=1)	replication of the mutant amplifier virus (CMV Δcrs mutant virus)	increase in titer [5]
CC(/C=C/C(=O)NO)=C\[C@@H](C)C(=O)c1ccc(N(C)C)cc1 [TSA, Trichostatin A]	neither activator reduces replication fitness	do not amplify IE2 protein levels	accelerate IE2 expression	significantly decreased viability	saturation in steady-state level	significantly accelerates IE2 expression in single cells	does not amplify steady-state IE2 levels	little effect on viability	significantly increased	linear increase in final level	–	–	–
Tumor Necrosis Factor Alpha [TNF-α]	–	do not amplify IE2 protein levels	accelerate IE2 expression	–	–	significantly accelerates IE2 expression in single cells	does not amplify steady-state IE2 levels	–	significantly increased	–	–	–	–
CCCC(CCC)C(=O)O [VPA, Valproic Acid]	neither activator reduces replication fitness	do not amplify IE2 protein levels; also recorded: no amplification in IE2 levels	accelerate IE2 expression; also recorded: acceleration	–	–	significantly accelerates IE2 expression in single cells; also recorded: decreases time to steady-state	does not amplify steady-state IE2 levels; also recorded: without increasing steady-state IE2-YFP levels	–	significantly increased	–	approximately five	Decreased replication	nine
